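Dose response: 5 concentrations. Exposure: 48 h. Format: 96-well plates. Endpoint: linear interpolation; highest concentration if not reached. GI50 is the concentration that inhibits growth by half.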 Activity calls are given as the source filed them. Rule as the data show it: active = GI50 up to about 1.1 µM and inactive = higher.
Experiments:
Experiment in all cases: growth of human tumour cells (NCI), 48 h
SN12C = system: SN12C
OVCAR-8 = system: OVCAR-8
SNB-19 = system: SNB-19
M14 = system: M14
HCT-15 = system: HCT-15
RXF 393 = system: RXF 393
UO-31 = system: UO-31
RXF 631 = system: RXF 631
HOP-18 = system: HOP-18
SF-268 = system: SF-268
SR = system: SR
SK-MEL-5 = system: SK-MEL-5
NCI-H522 = system: NCI-H522
COLO 205 = system: COLO 205
ACHN = system: ACHN
MOLT-4 = system: MOLT-4
HT-29 = system: HT-29
Malme-3M = system: Malme-3M
K562 = system: K562
SF-539 = system: SF-539
HL-60 = system: HL-60
UACC-62 = system: UACC-62
A549 = system: A549
IGROV-1 = system: IGROV-1
786-0 = system: 786-0
HOP-92 = system: HOP-92
NCI-H460 = system: NCI-H460
UACC-257 = system: UACC-257
NCI-H226 = system: NCI-H226
KM12 = system: KM12
SF-295 = system: SF-295
LOX IMVI = system: LOX IMVI
DLD-1 = system: DLD-1
SNB-75 = system: SNB-75
U-251 = system: U-251
HCT-116 = system: HCT-116
M19-MEL = system: M19-MEL
SK-OV-3 = system: SK-OV-3
OVCAR-4 = system: OVCAR-4
KM-20L2 = system: KM-20L2
SW-620 = system: SW-620
CAKI-1 = system: CAKI-1
DMS-114 = system: DMS-114
HCC 2998 = system: HCC 2998
A498 = system: A498
RPMI-8226 = system: RPMI-8226
TK-10 = system: TK-10
OVCAR-5 = system: OVCAR-5
HOP-62 = system: HOP-62
CCRF-CEM = system: CCRF-CEM
SK-MEL-2 = system: SK-MEL-2
LXFL 529 = system: LXFL 529
DMS-273 = system: DMS-273
SNB-78 = system: SNB-78
SK-MEL-28 = system: SK-MEL-28
EKVX = system: EKVX
XF498 = system: XF498
OVCAR-3 = system: OVCAR-3
NCI-H23 = system: NCI-H23

Measured: GI50

O=C1OC(=O)c2c1nc1ccccc1c2-c1ccccc1
inactive: SN12C > 100 µM | OVCAR-8 > 100 µM | SNB-19 > 100 µM | M14 > 100 µM | RXF 393 > 100 µM | UO-31 > 100 µM | RXF 631 > 100 µM | HOP-18 > 100 µM | SF-268 > 100 µM | SR > 100 µM | SK-MEL-5 > 100 µM | NCI-H522 > 100 µM | COLO 205 > 100 µM | ACHN > 100 µM | MOLT-4 > 100 µM | HT-29 > 100 µM | Malme-3M > 100 µM | K562 > 100 µM | SF-539 > 100 µM | HL-60 > 100 µM | UACC-62 > 100 µM | A549 > 100 µM | IGROV-1 > 100 µM | 786-0 > 100 µM | HOP-92 > 100 µM | NCI-H460 > 100 µM | UACC-257 > 100 µM | NCI-H226 > 100 µM | KM12 > 100 µM | SF-295 > 100 µM | LOX IMVI > 100 µM | DLD-1 > 100 µM | SNB-75 > 100 µM | U-251 > 100 µM | HCT-116 > 100 µM | M19-MEL > 100 µM | SK-OV-3 > 100 µM | OVCAR-4 > 100 µM | KM-20L2 > 100 µM | SW-620 > 100 µM | CAKI-1 > 100 µM | DMS-114 > 100 µM | HCC 2998 > 100 µM | A498 > 100 µM | RPMI-8226 > 100 µM | TK-10 > 100 µM | OVCAR-5 > 100 µM | HOP-62 > 100 µM | CCRF-CEM > 100 µM | SK-MEL-2 > 100 µM | LXFL 529 > 100 µM | DMS-273 > 100 µM | SNB-78 > 100 µM
> 100 µM: HCT-15

CCc1ccccc1NC(=O)C(=O)C(C#N)c1c(Cl)cccc1Cl (stereo not drawn)
inactive: SN12C > 100 µM | SK-MEL-28 > 100 µM | SNB-19 > 100 µM | M14 > 100 µM | UO-31 > 100 µM | RXF 631 > 100 µM | SF-268 > 100 µM | SR > 100 µM | NCI-H522 > 100 µM | ACHN > 100 µM | EKVX > 100 µM | MOLT-4 > 100 µM | HT-29 > 100 µM | Malme-3M > 100 µM | K562 > 100 µM | SF-539 > 100 µM | HL-60 > 100 µM | UACC-62 > 100 µM | A549 > 100 µM | IGROV-1 > 100 µM | 786-0 > 100 µM | HOP-92 > 100 µM | UACC-257 > 100 µM | NCI-H226 > 100 µM | KM12 > 100 µM | SF-295 > 100 µM | XF498 > 100 µM | LOX IMVI > 100 µM | DLD-1 > 100 µM | SNB-75 > 100 µM | U-251 > 100 µM | HCT-116 > 100 µM | M19-MEL > 100 µM | SK-OV-3 > 100 µM | KM-20L2 > 100 µM | OVCAR-3 > 100 µM | SW-620 > 100 µM | CAKI-1 > 100 µM | RPMI-8226 > 100 µM | TK-10 > 100 µM | NCI-H23 > 100 µM | CCRF-CEM > 100 µM | SK-MEL-2 > 100 µM | LXFL 529 > 100 µM | DMS-273 > 100 µM | SNB-78 > 100 µM
> 100 µM: HCT-15

Cc1cccc2cc3cccc(C(=O)NCCN(C)C)c3nc12
0.0993 µM: HCT-15
active: SN12C 0.063 µM | SK-MEL-28 0.519 µM | OVCAR-8 0.0925 µM | SNB-19 0.191 µM | M14 0.433 µM | RXF 393 0.269 µM | UO-31 0.083 µM | RXF 631 0.0538 µM | HOP-18 0.399 µM | SF-268 0.296 µM | SR 0.0224 µM | SK-MEL-5 0.173 µM | NCI-H522 0.151 µM | COLO 205 0.0798 µM | ACHN 0.0257 µM | EKVX 0.362 µM | MOLT-4 < 0.01 µM | HT-29 0.131 µM | Malme-3M 0.139 µM | K562 0.203 µM | SF-539 0.129 µM | HL-60 0.028 µM | UACC-62 0.129 µM | A549 0.0171 µM | IGROV-1 0.38 µM | 786-0 0.129 µM | HOP-92 0.185 µM | NCI-H460 < 0.01 µM | UACC-257 0.245 µM | NCI-H226 0.0638 µM | KM12 0.397 µM | SF-295 0.131 µM | LOX IMVI 0.083 µM | DLD-1 0.119 µM | SNB-75 0.235 µM | U-251 0.0689 µM | HCT-116 0.0354 µM | M19-MEL 0.157 µM | SK-OV-3 0.138 µM | OVCAR-4 0.27 µM | KM-20L2 0.242 µM | OVCAR-3 0.366 µM | SW-620 0.0394 µM | CAKI-1 0.027 µM | DMS-114 0.115 µM | HCC 2998 0.181 µM | A498 0.045 µM | TK-10 0.317 µM | OVCAR-5 0.292 µM | NCI-H23 0.171 µM | HOP-62 0.0745 µM | CCRF-CEM 0.0575 µM | SK-MEL-2 0.579 µM | LXFL 529 0.275 µM | DMS-273 0.0374 µM | SNB-78 0.614 µM

Reference: ChEMBL document CHEMBL1201862, “PubChem BioAssay data set” (2004)
